Assay results published in publication PMC8269692 (Biochemistry, 2021).

Target: T1, human macrophage galactose-type lectin (hMGL) extracellular domain (Homo sapiens, UniProt Q8IUN9)
T1 sequence (Q8IUN9 with tags, fused parts or gaps isoform Q8IUN9-2): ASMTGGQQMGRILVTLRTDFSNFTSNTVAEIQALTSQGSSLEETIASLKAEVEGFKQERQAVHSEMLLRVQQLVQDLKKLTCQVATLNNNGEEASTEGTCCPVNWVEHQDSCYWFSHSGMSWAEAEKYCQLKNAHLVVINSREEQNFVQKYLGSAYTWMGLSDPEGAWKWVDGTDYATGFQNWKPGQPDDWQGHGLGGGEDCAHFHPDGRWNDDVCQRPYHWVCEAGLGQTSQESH
Experiment: ITC titration of ligands into hMGL
Assay type: binding
Settings: for KA: one-set-of-sites model

[1] = ITC, buffered H2O (10 mM HEPES sodium salt, 50 mM NaCl, 2 mM CaCl2, pH 7.4), 25 °C
[2] = ITC, buffered D2O (10 mM HEPES sodium salt, 50 mM NaCl, 2 mM CaCl2, pH 7.4), 25 °C
[3] = ITC, buffered D2O, pH 7.4, 25 °C
[4] = ITC, buffered H2O, pH 7.4, 25 °C
[5] = deuterium isotope effect, DIE = H2O – D2O

SMILES: CO[C@@H]1O[C@H](CO)[C@@H](O)[C@H](O)[C@H]1O [methyl β-glucopyranoside]
- affinity for hMGL (result in words) (ITC, buffered H2O, 25 °C): no indication of a detectable affinity

SMILES: CC(=O)N[C@H]1[C@@H](O[C@H](C)[C@H](N)C(=O)O)O[C@H](CO)[C@H](O)[C@@H]1O [Thr-Tn]
- Kd [1]: 16 to 17 µM

SMILES: CC(=O)N[C@H]1C(O)O[C@H](CO)[C@H](O)[C@@H]1O (stereo partly drawn) [GalNAc, N-acetyl-D-galactosamine]
- Kd [2]: 7.25 µM
- KA [2]: 13.79 ×10^4 M^–1
- n (number of binding sites, stoichiometry) [3]: 0.97
- ΔG [3]: –7.01 kcal mol^–1
- ΔH [3]: –6.81 kcal mol^–1
- Δ−(TΔS) [3]: –0.20 kcal mol^–1
- Kd [1]: 17.7 µM
- KA [1]: 5.64 ×10^4 M^–1
- ΔG [4]: –6.49 kcal mol^–1
- ΔH [4]: –11.30 kcal mol^–1
- Δ−(TΔS) [4]: 4.81 kcal mol^–1
- n (number of binding sites, stoichiometry) (ITC, buffered H2O, pH 7.4, 25 °C, n normalized to active cell concentration of the dissociating trimer): 0.99
- ΔΔG [5]: 0.52 kcal mol^–1
- ΔΔH [5]: –4.49 kcal mol^–1
- Δ−(TΔS) [5]: 5.01 kcal mol^–1
- ΔΔH (deuterium isotope effect, DIE = H2O – D2O, listed as free glycan): −4.49 kcal mol^–1

SMILES: CO[C@H]1O[C@H](CO)[C@H](O)[C@H](O)[C@H]1NC(C)=O [α-Me-GalNAc, Methyl N-acetyl-α-D-galactosamine]
- affinity relative to β-anomer and GalNAcα1-O-Thr conjugate (ITC, buffered H2O, 25 °C): 2 fold
